Experimental data from ChEMBL document CHEMBL5465560, “Selectivity Literature for EUbOPEN Chemogenomic Library” (2024).

Experiments:
[1] = biological target: Serine/threonine-protein kinase MRCK beta (Homo sapiens) (UniProt Q9Y5S2); test: Selectivity interaction (KinomeScan (DiscoverX)) EUB0001049a CDC42BPB; details: at 1 µM
[2] = biological target: Cyclin-dependent kinase-like 3 (Homo sapiens) (UniProt Q8IVW4); test: Selectivity interaction (KinomeScan (DiscoverX)) EUB0001049a CDKL3; details: at 1 µM
D(1A) dopamine receptor = D(1A) dopamine receptor (Homo sapiens, UniProt P21728); test: Selectivity interaction (Eurofins CEREP Diversity Profile (receptors and ion channels)) EUB0000279b DRD1; details: at 10 µM
[3] = biological target: T1, Serine/threonine-protein kinase PLK4 (Homo sapiens) (UniProt O00444); test: Selectivity interaction (Kinase panel (DSF assay)) EUB0001558a PLK4
T1 sequence (whole entry): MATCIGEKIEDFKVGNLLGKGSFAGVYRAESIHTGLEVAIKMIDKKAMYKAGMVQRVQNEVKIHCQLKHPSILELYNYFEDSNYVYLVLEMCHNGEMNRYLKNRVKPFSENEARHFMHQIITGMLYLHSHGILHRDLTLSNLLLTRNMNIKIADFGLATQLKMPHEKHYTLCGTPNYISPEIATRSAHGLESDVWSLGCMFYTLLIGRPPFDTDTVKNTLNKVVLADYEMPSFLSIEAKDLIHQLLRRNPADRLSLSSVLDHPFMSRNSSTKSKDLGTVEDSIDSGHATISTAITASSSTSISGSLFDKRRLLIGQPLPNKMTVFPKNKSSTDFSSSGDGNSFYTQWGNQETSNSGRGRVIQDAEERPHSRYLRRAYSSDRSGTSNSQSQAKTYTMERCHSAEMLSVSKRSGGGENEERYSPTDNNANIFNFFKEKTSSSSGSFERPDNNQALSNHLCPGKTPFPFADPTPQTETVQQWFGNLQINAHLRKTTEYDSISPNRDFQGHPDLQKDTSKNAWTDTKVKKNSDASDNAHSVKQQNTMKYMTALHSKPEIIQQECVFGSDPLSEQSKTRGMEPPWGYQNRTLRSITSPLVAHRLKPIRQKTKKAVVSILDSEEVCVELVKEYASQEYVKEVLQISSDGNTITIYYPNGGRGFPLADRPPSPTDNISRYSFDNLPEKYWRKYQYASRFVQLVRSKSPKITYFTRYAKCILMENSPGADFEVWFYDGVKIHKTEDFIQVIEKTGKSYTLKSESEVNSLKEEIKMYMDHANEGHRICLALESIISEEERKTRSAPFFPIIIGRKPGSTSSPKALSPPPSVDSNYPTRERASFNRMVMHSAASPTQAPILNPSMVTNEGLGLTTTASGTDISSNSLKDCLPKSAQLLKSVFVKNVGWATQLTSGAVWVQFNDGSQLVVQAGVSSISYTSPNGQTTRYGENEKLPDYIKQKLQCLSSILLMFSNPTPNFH

[4] = biological target: Tyrosine-protein kinase HCK (Homo sapiens) (UniProt P08631); test: Selectivity interaction (KinomeScan (DiscoverX)) EUB0000618a HCK; details: at 10 µM
[5] = biological target: T2, Mitogen-activated protein kinase kinase kinase 3 (Homo sapiens) (UniProt Q99759); test: Selectivity interaction (ActivX KiNativ screen (ex vivo kinase selectivity in human PBMCs)) EUB0001619a MAP3K3; format: cell-based; details: PBMC, at 1 µM
T2 sequence (whole entry): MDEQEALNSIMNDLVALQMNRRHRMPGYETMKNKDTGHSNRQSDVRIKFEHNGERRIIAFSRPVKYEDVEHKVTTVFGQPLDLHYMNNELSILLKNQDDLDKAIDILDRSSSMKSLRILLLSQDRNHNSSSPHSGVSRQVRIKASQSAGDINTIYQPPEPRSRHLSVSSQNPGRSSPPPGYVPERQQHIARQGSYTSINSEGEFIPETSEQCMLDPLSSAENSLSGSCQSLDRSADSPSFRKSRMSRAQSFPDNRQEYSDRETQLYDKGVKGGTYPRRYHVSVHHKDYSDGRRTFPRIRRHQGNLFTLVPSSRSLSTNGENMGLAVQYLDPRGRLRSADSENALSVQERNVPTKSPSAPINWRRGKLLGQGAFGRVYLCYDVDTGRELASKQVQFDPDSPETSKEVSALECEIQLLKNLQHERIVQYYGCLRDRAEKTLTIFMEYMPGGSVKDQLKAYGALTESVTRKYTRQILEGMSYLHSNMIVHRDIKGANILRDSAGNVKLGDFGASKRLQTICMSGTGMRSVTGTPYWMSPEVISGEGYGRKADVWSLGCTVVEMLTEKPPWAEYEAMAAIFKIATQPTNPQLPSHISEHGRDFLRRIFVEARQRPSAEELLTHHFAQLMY

[6] = biological target: Interferon-induced, double-stranded RNA-activated protein kinase (Homo sapiens) (UniProt P19525); test: Selectivity interaction (ActivX KiNativ screen (ex vivo kinase selectivity in human PBMCs)) EUB0001619a EIF2AK2; format: cell-based; details: PBMC, at 1 µM
[7] = biological target: T3, Phosphatidylinositol 5-phosphate 4-kinase type-2 beta (Homo sapiens) (UniProt P78356); test: Selectivity interaction (KinomeScan (DiscoverX)) EUB0000655a PIP4K2B; details: at 10 µM
T3 sequence (whole entry): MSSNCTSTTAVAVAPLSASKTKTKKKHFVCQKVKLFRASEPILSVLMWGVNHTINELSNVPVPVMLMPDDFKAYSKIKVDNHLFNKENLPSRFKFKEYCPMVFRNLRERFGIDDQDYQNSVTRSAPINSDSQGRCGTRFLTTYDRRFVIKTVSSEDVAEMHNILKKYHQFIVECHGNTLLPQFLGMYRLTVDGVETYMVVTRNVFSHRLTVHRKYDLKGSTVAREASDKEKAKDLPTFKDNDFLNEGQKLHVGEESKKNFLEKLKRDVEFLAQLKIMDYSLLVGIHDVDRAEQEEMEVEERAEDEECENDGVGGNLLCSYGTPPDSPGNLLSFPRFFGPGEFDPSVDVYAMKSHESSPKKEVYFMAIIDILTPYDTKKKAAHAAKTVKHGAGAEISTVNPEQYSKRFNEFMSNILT

[8] = biological target: Proto-oncogene tyrosine-protein kinase ROS (Homo sapiens) (UniProt P08922); test: Selectivity interaction (SelectScreen profiling (Invitrogen)) EUB0000607a ROS1; details: at 2 µM
[9] = biological target: Serine/threonine-protein kinase Nek6 (Homo sapiens) (UniProt Q9HC98); test: Selectivity interaction (Kinase panel (Z-LYTE Assay)) EUB0001632a NEK6; details: at 10 µM
Serine/threonine-protein kinase Nek6 (Homo sapiens), sequence (Q9HC98 whole entry): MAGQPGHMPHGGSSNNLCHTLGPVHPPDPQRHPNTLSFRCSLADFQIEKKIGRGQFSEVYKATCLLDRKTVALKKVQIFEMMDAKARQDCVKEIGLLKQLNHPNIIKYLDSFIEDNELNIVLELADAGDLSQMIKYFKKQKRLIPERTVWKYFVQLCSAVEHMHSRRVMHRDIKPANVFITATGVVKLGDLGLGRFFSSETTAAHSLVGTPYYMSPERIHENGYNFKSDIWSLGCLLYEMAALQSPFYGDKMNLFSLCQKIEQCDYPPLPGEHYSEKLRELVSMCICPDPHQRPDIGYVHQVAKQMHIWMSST

Tyrosine-protein kinase HCK (Homo sapiens), sequence (P08631 2-526 limits assumed): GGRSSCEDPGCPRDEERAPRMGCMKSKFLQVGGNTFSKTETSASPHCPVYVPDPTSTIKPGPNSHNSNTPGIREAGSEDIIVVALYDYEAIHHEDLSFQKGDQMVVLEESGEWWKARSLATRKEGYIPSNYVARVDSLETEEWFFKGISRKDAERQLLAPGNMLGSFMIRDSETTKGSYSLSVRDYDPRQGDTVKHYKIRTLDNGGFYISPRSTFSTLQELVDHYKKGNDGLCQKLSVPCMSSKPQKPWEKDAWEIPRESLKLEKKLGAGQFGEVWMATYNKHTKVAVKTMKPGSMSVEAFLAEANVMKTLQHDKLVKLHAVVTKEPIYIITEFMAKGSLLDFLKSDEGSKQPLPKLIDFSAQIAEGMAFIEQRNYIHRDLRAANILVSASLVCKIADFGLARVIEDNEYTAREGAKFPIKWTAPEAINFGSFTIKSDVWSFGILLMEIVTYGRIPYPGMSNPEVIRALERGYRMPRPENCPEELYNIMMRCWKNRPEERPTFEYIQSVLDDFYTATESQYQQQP
D(1A) dopamine receptor, sequence (P21728 whole entry): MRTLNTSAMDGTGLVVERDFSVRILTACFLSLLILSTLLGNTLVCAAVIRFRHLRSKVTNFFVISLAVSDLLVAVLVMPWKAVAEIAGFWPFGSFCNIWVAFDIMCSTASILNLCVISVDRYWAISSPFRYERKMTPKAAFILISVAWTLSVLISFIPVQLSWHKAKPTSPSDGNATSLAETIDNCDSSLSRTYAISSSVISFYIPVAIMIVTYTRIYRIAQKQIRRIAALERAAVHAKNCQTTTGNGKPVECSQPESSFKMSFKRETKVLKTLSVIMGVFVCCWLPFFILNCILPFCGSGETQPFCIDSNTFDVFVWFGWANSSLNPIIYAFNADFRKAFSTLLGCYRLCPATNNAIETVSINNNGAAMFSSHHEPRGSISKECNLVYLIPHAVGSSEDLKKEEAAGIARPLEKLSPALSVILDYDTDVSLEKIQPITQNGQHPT
Cyclin-dependent kinase-like 3 (Homo sapiens), sequence (Q8IVW4 whole entry, looked up): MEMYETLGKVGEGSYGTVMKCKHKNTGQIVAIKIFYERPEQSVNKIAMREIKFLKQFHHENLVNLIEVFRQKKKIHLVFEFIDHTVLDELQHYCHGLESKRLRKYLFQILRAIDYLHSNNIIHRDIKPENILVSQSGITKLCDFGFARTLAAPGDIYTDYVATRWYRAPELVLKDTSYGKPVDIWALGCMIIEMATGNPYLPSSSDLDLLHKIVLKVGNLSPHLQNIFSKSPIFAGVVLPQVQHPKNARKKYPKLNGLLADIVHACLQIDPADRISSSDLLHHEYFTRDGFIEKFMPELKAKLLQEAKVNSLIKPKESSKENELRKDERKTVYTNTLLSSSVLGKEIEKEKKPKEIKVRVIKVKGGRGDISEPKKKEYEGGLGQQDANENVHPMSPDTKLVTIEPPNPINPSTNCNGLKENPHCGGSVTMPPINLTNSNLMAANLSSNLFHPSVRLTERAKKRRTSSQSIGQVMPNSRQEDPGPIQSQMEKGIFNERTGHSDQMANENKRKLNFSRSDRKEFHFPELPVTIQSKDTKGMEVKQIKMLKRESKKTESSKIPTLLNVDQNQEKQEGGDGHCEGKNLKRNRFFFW
Interferon-induced, double-stranded RNA-activated protein kinase (Homo sapiens), sequence (P19525 whole entry): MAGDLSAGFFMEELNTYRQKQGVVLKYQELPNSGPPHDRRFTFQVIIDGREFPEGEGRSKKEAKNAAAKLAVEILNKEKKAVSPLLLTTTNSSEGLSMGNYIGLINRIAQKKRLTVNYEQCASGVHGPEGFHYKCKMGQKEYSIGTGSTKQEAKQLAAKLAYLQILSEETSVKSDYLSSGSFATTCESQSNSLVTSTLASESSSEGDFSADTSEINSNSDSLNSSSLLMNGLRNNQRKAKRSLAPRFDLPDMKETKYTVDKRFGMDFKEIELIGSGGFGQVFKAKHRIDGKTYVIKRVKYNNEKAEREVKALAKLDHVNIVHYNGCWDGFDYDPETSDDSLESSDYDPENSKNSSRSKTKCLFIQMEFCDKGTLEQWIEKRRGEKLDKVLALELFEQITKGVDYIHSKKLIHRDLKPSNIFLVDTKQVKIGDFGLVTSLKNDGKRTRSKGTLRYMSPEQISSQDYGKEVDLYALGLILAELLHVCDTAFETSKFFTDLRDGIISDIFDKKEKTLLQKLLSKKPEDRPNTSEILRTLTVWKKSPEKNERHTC
Proto-oncogene tyrosine-protein kinase ROS (Homo sapiens), sequence (P08922 whole entry): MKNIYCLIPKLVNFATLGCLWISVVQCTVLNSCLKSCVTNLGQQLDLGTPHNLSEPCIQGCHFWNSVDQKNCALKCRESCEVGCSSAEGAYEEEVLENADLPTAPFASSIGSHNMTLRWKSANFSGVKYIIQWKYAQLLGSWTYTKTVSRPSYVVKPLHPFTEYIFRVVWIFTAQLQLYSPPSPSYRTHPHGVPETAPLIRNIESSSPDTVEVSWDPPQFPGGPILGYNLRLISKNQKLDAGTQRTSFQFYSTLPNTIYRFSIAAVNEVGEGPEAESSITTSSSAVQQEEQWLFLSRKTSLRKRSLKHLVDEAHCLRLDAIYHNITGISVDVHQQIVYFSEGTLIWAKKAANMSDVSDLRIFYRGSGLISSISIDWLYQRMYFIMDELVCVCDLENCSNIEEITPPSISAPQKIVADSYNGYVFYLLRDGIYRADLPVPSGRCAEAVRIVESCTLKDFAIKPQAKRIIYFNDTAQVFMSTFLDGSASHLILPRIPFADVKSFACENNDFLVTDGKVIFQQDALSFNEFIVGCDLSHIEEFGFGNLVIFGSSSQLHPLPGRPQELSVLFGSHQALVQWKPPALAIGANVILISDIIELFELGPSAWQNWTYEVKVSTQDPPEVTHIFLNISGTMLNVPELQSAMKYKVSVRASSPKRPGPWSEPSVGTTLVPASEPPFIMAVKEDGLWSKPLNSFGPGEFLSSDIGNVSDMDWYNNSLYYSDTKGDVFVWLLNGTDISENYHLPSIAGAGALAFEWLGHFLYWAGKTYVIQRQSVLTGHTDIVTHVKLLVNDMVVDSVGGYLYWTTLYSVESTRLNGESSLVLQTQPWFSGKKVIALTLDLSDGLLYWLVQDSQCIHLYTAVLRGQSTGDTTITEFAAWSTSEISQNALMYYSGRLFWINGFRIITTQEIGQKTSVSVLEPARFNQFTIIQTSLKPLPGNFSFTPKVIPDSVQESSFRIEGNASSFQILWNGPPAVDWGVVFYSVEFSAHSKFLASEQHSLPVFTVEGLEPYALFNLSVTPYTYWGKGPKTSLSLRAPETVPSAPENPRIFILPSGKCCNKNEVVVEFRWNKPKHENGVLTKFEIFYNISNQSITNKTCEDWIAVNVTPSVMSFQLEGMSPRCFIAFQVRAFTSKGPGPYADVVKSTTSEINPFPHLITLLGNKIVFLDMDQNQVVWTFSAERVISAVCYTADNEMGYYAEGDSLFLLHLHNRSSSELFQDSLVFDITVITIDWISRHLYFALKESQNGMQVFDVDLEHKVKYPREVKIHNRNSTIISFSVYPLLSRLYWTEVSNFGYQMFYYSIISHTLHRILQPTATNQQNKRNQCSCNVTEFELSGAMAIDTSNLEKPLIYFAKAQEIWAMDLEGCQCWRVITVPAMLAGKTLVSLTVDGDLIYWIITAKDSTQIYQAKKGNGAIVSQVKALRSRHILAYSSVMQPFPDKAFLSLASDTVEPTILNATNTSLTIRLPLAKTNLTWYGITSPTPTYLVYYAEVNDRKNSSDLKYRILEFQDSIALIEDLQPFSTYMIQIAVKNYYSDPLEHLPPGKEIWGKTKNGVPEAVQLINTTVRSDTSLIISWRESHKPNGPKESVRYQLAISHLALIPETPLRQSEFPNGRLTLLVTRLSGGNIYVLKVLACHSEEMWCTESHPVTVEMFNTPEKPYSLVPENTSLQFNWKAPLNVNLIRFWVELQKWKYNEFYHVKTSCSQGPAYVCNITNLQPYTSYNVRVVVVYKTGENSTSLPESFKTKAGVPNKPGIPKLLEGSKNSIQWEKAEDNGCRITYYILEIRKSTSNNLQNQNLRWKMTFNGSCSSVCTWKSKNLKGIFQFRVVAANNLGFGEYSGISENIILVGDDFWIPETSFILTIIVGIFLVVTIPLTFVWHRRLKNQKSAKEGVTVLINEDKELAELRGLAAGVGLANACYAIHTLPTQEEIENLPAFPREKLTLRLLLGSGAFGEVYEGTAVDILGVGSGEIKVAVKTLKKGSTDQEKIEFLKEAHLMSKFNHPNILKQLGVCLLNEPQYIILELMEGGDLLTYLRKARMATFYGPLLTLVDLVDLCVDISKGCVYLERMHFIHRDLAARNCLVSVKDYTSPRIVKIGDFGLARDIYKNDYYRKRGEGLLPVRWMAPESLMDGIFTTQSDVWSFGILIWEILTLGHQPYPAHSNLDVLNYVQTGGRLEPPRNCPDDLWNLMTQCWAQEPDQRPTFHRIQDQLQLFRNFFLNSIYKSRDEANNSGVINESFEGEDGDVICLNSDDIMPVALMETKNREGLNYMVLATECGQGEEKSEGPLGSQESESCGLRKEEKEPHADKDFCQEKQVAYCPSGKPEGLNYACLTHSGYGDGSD

## COc1cc(Nc2nc(C)cc(-c3cnn4nc(OC)ccc34)n2)cc(C(F)(F)F)c1
[1]
  % of control: 85%
[2]
  % of control: 94%

## CC(=O)c1cc(-c2ccccc2OCC2CC2)c2ncccn12
D(1A) dopamine receptor
  % of control: 90%

## CC(C)(O)[C@H](F)CN1Cc2cc(NC(=O)c3cnn4cccnc34)c(N3CCOCC3)cc2C1=O
[3]
  dTM: 5.2 K

## O[C@H]1CC[C@H](Nc2ncc3nc(Nc4c(F)cc(F)cc4F)n([C@H]4CCOC4)c3n2)CC1
[4]
  % of control: 100%

## N#Cc1cccc(-c2c[nH]c3ncnc(N4CCOCC4)c23)c1
[5]
  % of inhibition: 13%
[6]
  % of inhibition: 12%

## CN(C)CCOc1ccc(-c2nc(-c3ccncc3)c(-c3ccc4c(c3)CC/C4=N\O)[nH]2)cc1
[7]
  % of control: 94%

## CNC(=O)Nc1ccc(-c2nc(N3CC4CCC(C3)O4)c3cnn(C4CCC5(CC4)OCCO5)c3n2)cc1
[8]
  % of inhibition: 2%

## Cn1cc(-n2cnc3c(NCc4nc5cc(Cl)c(Cl)cc5[nH]4)nc(N4CCOCC4)nc32)cn1
[9]
  % of control: 3.78%
